In the OligoGym collection:
Oligonucleotides are written 5' to 3', each unit as a sugar letter and its base; * is a phosphorothioate linkage, no mark a phosphodiester; rarer units and linkages stand in square brackets, end groups in braces. Plain capitals give the bases only. d = 2'-deoxy (DNA); r = 2'-OH (RNA)

molecular target: UBE2W; assay: reporter assay of Huesken 2005; conditions: siRNA
Also: test concentration or dose not given here.

Substance	normalised inhibition (eCFP-eYFP dual reporter) [%]
sense rArArArArUrArUrUrCrCrUrGrUrUrCrArUrCrCdTdT / antisense rGrGrArUrGrArArCrArGrGrArArUrArUrUrUrUdCdA	53.5

molecular target: UBE2S; assay: reporter assay of Huesken 2005; conditions: siRNA

Substance	normalised inhibition (eCFP-eYFP dual reporter) [%]
sense rCrCrUrGrCrUrCrUrUrGrGrArGrArArCrUrArCdTdT / antisense rGrUrArGrUrUrCrUrCrCrArArGrArGrCrArGrGdCdG	70.7
sense rCrGrArGrUrCrUrGrCrArCrUrCrArArCrGrArGdTdT / antisense rCrUrCrGrUrUrGrArGrUrGrCrArGrArCrUrCrGdGdG	70.6
sense rCrGrCrArGrArCrCrCrArCrCrCrGrArUrGrGrCdTdT / antisense rGrCrCrArUrCrGrGrGrUrGrGrGrUrCrUrGrCrGdGdT	51.5
sense rCrGrGrUrCrGrGrGrCrCrCrUrGrGrCrCrArGrUdTdT / antisense rArCrUrGrGrCrCrArGrGrGrCrCrCrGrArCrCrGdGdC	41.5
sense rCrGrUrCrArArCrGrUrGrCrUrCrArArGrArGrGdTdT / antisense rCrCrUrCrUrUrGrArGrCrArCrGrUrUrGrArCrGdCdA	63.1
sense rCrUrCrCrArCrCrGrArCrCrCrUrGrGrGrGrCrCdTdT / antisense rGrGrCrCrCrCrArGrGrGrUrCrGrGrUrGrGrArGdGdA	44
sense rCrUrCrGrGrGrCrCrCrGrUrCrUrGrCrUrCrArCdTdT / antisense rGrUrGrArGrCrArGrArCrGrGrGrCrCrCrGrArGdCdT	55
sense rCrUrGrCrGrUrCrArArCrGrUrGrCrUrCrArArGdTdT / antisense rCrUrUrGrArGrCrArCrGrUrUrGrArCrGrCrArGdAdT	67.8
sense rCrUrGrCrUrCrArCrArGrArGrArUrCrCrArCrGdTdT / antisense rCrGrUrGrGrArUrCrUrCrUrGrUrGrArGrCrArGdAdC	54.8
sense rCrUrGrGrCrGrArGrCrGrCrGrArUrArArGrArAdTdT / antisense rUrUrCrUrUrArUrCrGrCrGrCrUrCrGrCrCrArGdCdA	82.4
sense rCrUrGrGrGrGrArArGrGrArCrUrUrCrCrCrUrGdTdT / antisense rCrArGrGrGrArArGrUrCrCrUrUrCrCrCrCrArGdCdA	40.4
sense rCrUrUrUrCrCrCrArArCrGrArGrGrArGrGrArCdTdT / antisense rGrUrCrCrUrCrCrUrCrGrUrUrGrGrGrArArArGdAdC	33.9
sense rGrArCrArCrGrUrArCrUrGrCrUrGrArCrCrArUdTdT / antisense rArUrGrGrUrCrArGrCrArGrUrArCrGrUrGrUrCdGdG	85.5
sense rGrArCrCrCrArCrCrCrGrArUrGrGrCrArUrCrAdTdT / antisense rUrGrArUrGrCrCrArUrCrGrGrGrUrGrGrGrUrCdTdG	61.7
sense rGrArGrGrArGrUrArUrGrCrArGrCrUrCrGrGrGdTdT / antisense rCrCrCrGrArGrCrUrGrCrArUrArCrUrCrCrUrCdGdT	56.7
sense rGrArGrGrGrCrCrCrUrGrArGrGrGrGrArCrCrCdTdT / antisense rGrGrGrUrCrCrCrCrUrCrArGrGrGrCrCrCrUrCdGdA	44.6
sense rGrArGrGrGrGrCrUrGrArGrGrGrUrCrCrCrArUdTdT / antisense rArUrGrGrGrArCrCrCrUrCrArGrCrCrCrCrUrCdCdC	45
sense rGrArGrUrArUrGrCrArGrCrUrCrGrGrGrCrCrCdTdT / antisense rGrGrGrCrCrCrGrArGrCrUrGrCrArUrArCrUrCdCdT	53.4
sense rGrArGrUrCrUrGrCrArCrUrCrArArCrGrArGrGdTdT / antisense rCrCrUrCrGrUrUrGrArGrUrGrCrArGrArCrUrCdGdG	71.5
sense rGrCrArCrUrCrArArCrGrArGrGrArGrGrCrGrGdTdT / antisense rCrCrGrCrCrUrCrCrUrCrGrUrUrGrArGrUrGrCdAdG	48.5
sense rGrCrArCrUrGrArArGrCrUrUrCrCrUrCrCrArCdTdT / antisense rGrUrGrGrArGrGrArArGrCrUrUrCrArGrUrGrCdCdA	58.5
sense rGrCrCrArGrUrGrGrCrArCrUrGrArArGrCrUrUdTdT / antisense rArArGrCrUrUrCrArGrUrGrCrCrArCrUrGrGrCdCdA	57.9
sense rGrCrCrCrArGrCrGrGrCrArGrGrGrCrCrGrArAdTdT / antisense rUrUrCrGrGrCrCrCrUrGrCrCrGrCrUrGrGrGrCdCdC	42
sense rGrCrCrUrCrCrCrCrArCrCrCrArArGrGrGrCrUdTdT / antisense rArGrCrCrCrUrUrGrGrGrUrGrGrGrGrArGrGrCdAdG	46.3
sense rGrCrCrUrGrCrUrCrUrUrGrGrArGrArArCrUrAdTdT / antisense rUrArGrUrUrCrUrCrCrArArGrArGrCrArGrGrCdGdG	76
